Consider six molecules from ChEMBL document CHEMBL5252558, “Noonindoles G-L: Indole Diterpene Glycosides from the Australian Marine-Derived Fungus Aspergillus noonimiae CMB-M0339” (J Nat Prod, 2023).

Active and inactive are the calls of the source. The calls are words filed in the database; no cut-off is given here.

What is called IC50 is the concentration that gives 50% inhibition.

Test [1] concerns Candida albicans. Kind of test: Antifungal activity against Candida albicans ATCC 10231 assessed as inhibition of fungal growth incubated for 48 hrs by spectrophotometric analysis. Type of test: functional, organism-based.
Test [2] concerns NCI-H460. The experiment in a line: Cytotoxicity against human NCI-H460 cells assessed as inhibition of cell growth incubated for 68 hrs by MTT assay. Format: functional, cell-based. The conditions noted are these: NCI-H460, 68 h. A general note: Tetrazolium dyes change colour on reduction, which living cells bring about.
For test [3], the system named is SW-620. Kind of test: Cytotoxicity against human SW620 cells assessed as inhibition of cell growth incubated for 68 hrs by MTT assay. Format: functional, cell-based. The note with it: SW-620, 68 h.
The subject of test [4] is Bacillus subtilis. Kind of test: Antibacterial activity against Bacillus subtilis ATCC 6633 assessed as inhibition of bacterial growth incubated for 24 hrs by spectrophotometric analysis. Format: functional, organism-based.
The subject of test [5] is Staphylococcus aureus. Kind of test: Antibacterial activity against Staphylococcus aureus ATCC 25923 assessed as inhibition of bacterial growth incubated for 24 hrs by spectrophotometric analysis. Format: functional, organism-based.
In test [6] the test system is Escherichia coli. The experiment in a line: Antibacterial activity against Escherichia coli ATCC 11775 assessed as inhibition of bacterial growth incubated for 24 hrs by spectrophotometric analysis. Format: functional, organism-based.

Take `CC(C)(O[C@@H]1O[C@H](CO)[C@@H](O)[C@H](O)[C@@H]1O)[C@@H]1CC[C@]2(C)[C@H](CC[C@@]3(C)[C@H]2CC[C@H]2Cc4c([nH]c5ccccc45)[C@@]23C)O1`: the result in test [1], in test [4], in test [5] and in test [6] was inactive. The IC50 in test [2] and in test [3] was > 30 µM each time.
On to `CC(C)(O[C@@H]1O[C@H](CO)[C@@H](O)[C@H](O)[C@@H]1O)[C@H]1O[C@H]2CC[C@@]3(C)[C@@H](CC[C@H]4Cc5c([nH]c6ccccc56)[C@@]43C)C2=C[C@H]1O`, for which the result in test [1], in test [4], in test [5] and in test [6] was inactive. Further, the IC50 in test [2] and in test [3] was > 30 µM each time.
As for `CC(C)(O[C@@H]1O[C@H](CO)[C@@H](O)[C@H](O)[C@@H]1O)[C@@H]1CC[C@]2(CO)[C@H](CC[C@@]3(C)[C@H]2CC[C@H]2Cc4c([nH]c5ccccc45)[C@@]23C)O1`, the outcome in test [1], in test [4], in test [5] and in test [6] was inactive. Besides, the IC50 in test [2] and in test [3] was > 30 µM each time.
As to `CC(C)(O[C@@H]1O[C@H](CO)[C@@H](O)[C@H](O)[C@@H]1O)[C@H]1O[C@H]2CC[C@@]3(C)[C@@H](CC[C@H]4Cc5c([nH]c6ccccc56)[C@@]43C)C2=CC1=O`, the outcome in test [1], in test [4], in test [5] and in test [6] was inactive. The IC50 in test [2] and in test [3] was > 30 µM each time.
Consider `CC(C)(O[C@@H]1O[C@H](CO)[C@@H](O)[C@H](O)[C@@H]1O)[C@H]1O[C@@]2(O)CC[C@@]3(C)[C@@H](CC[C@H]4Cc5c([nH]c6ccccc56)[C@@]43C)C2=CC1=O`, for which the result in test [1], in test [4], in test [5] and in test [6] was inactive. Moreover, the IC50 in test [2] and in test [3] was > 30 µM throughout.
Turning to `CC(C)(O[C@@H]1O[C@H](CO)[C@@H](O)[C@H](O)[C@@H]1O)[C@@H]1CC[C@]2(C=O)[C@H](CC[C@@]3(C)[C@H]2CC[C@H]2Cc4c([nH]c5ccccc45)[C@@]23C)O1`, the result in test [1], in test [4], in test [5] and in test [6] was inactive. Moreover, the IC50 in test [2] and in test [3] was > 30 µM each time.
